Data reported in patent US11746124B2, “Chemoselective thiol-conjugation with alkene or alkyne-phosphonamidates” (FORSCHUNGSVERBUND BERLIN E.V., priority 2016, dated 2023).

What was measured:
[1] = Second order rate constant of glutathione addition to EDANS phosphonamidate, fluorescence HPLC; settings: 0.1 mM amidate, 0.1 mM glutathione, 50 mM NH4HCO3, 1 mM EDTA, pH 8.5, 1% DMF
Method: To study the kinetics of the thiol addition to alkyne-phosphonamidates at low concentrations, a fluorescent EDANS-based phosphonamidate was synthesized as described in chapter 1.1. Addition of glutathione as a model substrate was probed over time by fluorescence HPLC. Peak integration and normalization to unconjugated EDANS as an internal standard was applied to determine the second order rate constant of the reaction. A second order rate constant of 37.32±0.41 I/mol*s was measured.
Glutathione addition to the EDANS-phosphonamidate was conducted at a final concentration of 0.1 mM amidate, 0.1 mM glutathione and 0.02 mM EDANS as an internal standard in 50 mM NH4HCO3-buffer containing 1 mM EDTA at pH 8.5 with 1% DMF. 2.5 μl of a 20 mM stock solution of EDANS-phosphonamidate in DMF was premixed with 488 μl buffer and 5 μl of a 2 mM stock solution of EDANS in a 1:1 mixture of DMF and buffer. The reaction was started by the addition of 5 μl of a 10 mM solution of glutathione in buffer. 10 μl samples were drawn at 0, 15, 30, 60, 120, 240 and 480 minutes and acidified with 190 μl 10 mM NaOAc-Buffer (pH 5.0) and subjected to fluorescence HPLC analysis.

[2] = Stability of a vinyl phosphonamidate to different pHs by 31P-NMR in aqueous buffers; type: physicochemical; settings: room temperature
Description: In a first experiment, Ethyl-N-phenyl-P-vinyl-phosphonamidate was chosen to measure stability.

[3] = Hydrolytic decay of the GSH-phosphonamidate conjugate in aqueous buffer, 31P NMR over 24 hours; type: physicochemical
Method: The conjugate could be isolated by semipreparative HPLC under basic conditions as a diastereomeric mixture in a yield of 61%. Having reasonable quantities of this water soluble phosphonamidate-conjugate in hand, studies could be performed in order to determine the hydrolytic properties of the phosphorus-nitrogen bond. For these studies a […] in aqeuous buffer was prepared and the hydrolysis of the phosphonamidate was characterized by monitoring the decay of the conjugate against the standard by means of ^31P NMR over 24 hours.

[4] = Rate of glutathione addition to ethyl-N-phenyl alkynyl phosphonamidate, HPLC-UV; settings: reaction with glutathione, after 15 min at pH 8.5
Method: The rate of the reaction was determined by HPLC. Glutathione was added to a solution of ethyl-N-phenyl alkynyl phosphonamidate in aqueous buffer at slightly basic pH. The reaction was stopped after several time points by the addition of an acidic buffer and analyzed by HPLC-UV, referring to inosine as an internal standard. FIG. 2 refers to the consumption of ethyl-N-phenyl alkynyl phosphonamidate in the reaction with glutathione at pH 8.5. HPLC UV traces were taken at different time points. Experiment was performed in triplicate.

In the case of `C#CP(=O)(Nc1ccc(C(=O)NCCNc2cccc3c(S(=O)(=O)O)cccc23)cc1)OCC` (stereo not drawn) [EDANS-based phosphonamidate, 5-((2-(O-Ethyl-P-ethynyl-phosphonamidato-N-benzoyl)ethyl)amino)naphthalene-1-sulfonic acid], the “second order rate constant of the thiol addition” value [1] was 37.32±0.41 I/mol*s.
For `C=CP(=O)(Nc1ccccc1)OCC` (stereo not drawn) [Ethyl-N-phenyl-P-vinyl-phosphonamidate], the “stability to different pHs over time” value ([2]; aqueous buffers) was “stable over a broad pH range” and the “stability under strong acidic conditions” value ([2]; strong acidic conditions) was “P—N-bond cleavage occurred”.
For `CCOP(=O)(/C=C\SC[C@H](NC(=O)CC[C@H](N)C(=O)O)C(=O)NCC(=O)O)Nc1ccccc1` (stereo partly drawn) [GSH-phosphonamidate conjugate, (Ethyl-N-phenyl-P-ethenyl-phosphonamidate)-S-glutathion conjugate], the “hydrolytic decay of the conjugate” value ([3]; slight acidic conditions, 150 mM NH4OAc-buffer, pH 4.76) was “stable over the duration of the measurement” and the “hydrolytic decay of the conjugate” value ([3]; strong acidic conditions, 1 M HCL, pH 0.36) was “rapid decomposition”.
In the case of `C#CP(=O)(Nc1ccccc1)OCC` (stereo not drawn) [alkynyl phosphonamidate, Ethyl-N-phenyl-P-ethynyl-phosphonamidate], the “conversion of the alkynyl phosphonamidate starting material” value [4] was “more than 95%”.
